Assay [1] is described as follows: Inhibition of NS5A L31M mutant in patient derived HCV genotype 2b MD2b-1 infected in human HuH7 replicon cells assessed as reduction in viral replication after 3 days by luciferase reporter gene assay.
Assay [2] is described as follows: Inhibition of NS5A in HCV genotype 3a S52 infected in human HuH7 transient chimeric replicon cells assessed as reduction in viral replication after 3 days by luciferase reporter gene assay. Background: Replicon systems follow genome replication, usually without infectious particles.
Assay [3] is described as follows: Inhibition of NS5A L31M mutant in HCV genotype 2a J6 (M31) infected in human HuH7 replicon cells assessed as reduction in viral replication after 3 days by luciferase reporter gene assay.
The nature of assay [4]: Inhibition of NS5A in HCV genotype 4a ED43 infected in human HuH7 transient chimeric replicon cells assessed as reduction in viral replication after 3 days by luciferase reporter gene assay.
Assay [5] is described as follows: Inhibition of NS5A in HCV genotype 1b Con1 infected in human HuH7 replicon cells assessed as reduction in viral replication after 3 days by luciferase reporter gene assay.
Assay [6] in a line: Inhibition of NS5A in HCV genotype 2a JFH1 infected in human HuH7 replicon cells assessed as reduction in viral replication after 3 days by luciferase reporter gene assay.
Assay [7] in a line: Inhibition of NS5A in HCV genotype 1a H77 infected in human HuH7 replicon cells assessed as reduction in viral replication after 3 days by luciferase reporter gene assay.
Assay [8] can be described thus: Inhibition of NS5A L31M mutant in HCV genotype 2a JFH1 infected in human HuH7 replicon cells assessed as reduction in viral replication after 3 days by luciferase reporter gene assay.
Assay [9] in a line: Inhibition of NS5A in HCV genotype 2a JFH1 (L31) infected in human HuH7 replicon cells assessed as reduction in viral replication after 3 days by luciferase reporter gene assay.
Assay [10] can be described thus: Inhibition of NS5A in HCV genotype 2b MD2b-1 infected in human HuH7 replicon cells assessed as reduction in viral replication after 3 days by luciferase reporter gene assay.

Where only a bound is given, the exact number is not on record here.

As for `COC(=O)N[C@H](C(=O)N1CCC[C@H]1c1nc2ccc3cc4c(cc3c2[nH]1)OCc1cc(-c2cnc([C@@H]3CCCN3C(=O)[C@H](NC(=O)OC)c3ccccc3)[nH]2)ccc1-4)C(C)C`, the concentration for a half-maximal effect (EC50) worked out at 0.016 nM in assay [1]; 0.006 nM in assay [2]; 0.073 nM in assay [3]; 0.011 nM in assay [4]; 0.033 nM in [5]; 0.006 nM in assay [6]. The concentration giving a half-maximal response (EC50) in assay [7] came out at 0.035 nM.
For `COC(=O)N[C@H](C(=O)N1CCC[C@H]1c1ncc(-c2cc3c4c(c2)OCc2cc(-c5cnc([C@@H]6CCCN6C(=O)[C@@H](NC(=O)OC)C6CCC6)[nH]5)cc(c2-4)OC3)[nH]1)C1CCC1`, the concentration for a half-maximal effect (EC50) in assay [8] amounted to 31.3 nM; in assay [5] it was 0.02 nM; in [7] it was 0.053 nM; in assay [9], 0.02 nM.
`COC(=O)N[C@H](C(=O)N1CCC[C@H]1c1ncc(-c2cc3c4c(c2)OCc2cc(-c5cnc([C@@H]6CCCN6C(=O)[C@@H](NC(=O)OC)C6CCOCC6)[nH]5)cc(c2-4)OC3)[nH]1)C1CCOCC1`: the half-maximal effective concentration (EC50) came to 0.6 nM in [1]; 0.33 nM in [3]; 0.8 nM in [5]; 0.38 nM in [7]; 0.074 nM in [9].
As for `COC(=O)N[C@H](C(=O)N1CCC[C@H]1c1ncc(-c2cc3c4c(c2)COc2cc(-c5cnc([C@@H]6CCCN6C(=O)[C@@H](NC(=O)OC)C(C)C)[nH]5)cc(c2-4)CC3)[nH]1)C(C)C`, the half-maximal effective concentration (EC50) was found to be 23.7 nM in [3], 0.028 nM in [5], 0.065 nM in assay [7] and 0.016 nM in assay [9].
On to `COC(=O)N[C@H](C(=O)N1CCC[C@H]1c1ncc(-c2cc3c4c(c2)OCc2cc(-c5cnc([C@@H]6CCCN6C(=O)[C@@H](NC(=O)OC)C6CCOCC6)[nH]5)cc(c2-4)OC3)[nH]1)C(C)C`, for which the EC50 stood at 1.33 nM in [8]; 1.43 nM in assay [3]; 0.172 nM in [5]; 0.185 nM in assay [7]; 0.014 nM in assay [9].
As to `COC(=O)N[C@H](C(=O)N1CCC[C@H]1c1ncc(-c2ccc3c(c2)COc2cc4c(ccc5nc([C@@H]6CCCN6C(=O)[C@@H](NC(=O)OC)C(C)C)[nH]c54)cc2-3)[nH]1)C(C)C`, the concentration for a half-maximal effect (EC50) in assay [1] was 0.162 nM; in [2], 0.004 nM; in [3], 1.16 nM; in assay [4] it was 0.008 nM; in assay [5] it was 0.017 nM; in assay [7], 0.016 nM. Further, in [9], the EC50 turned out to be 0.004 nM.
Consider `COC(=O)N[C@H](C(=O)N1CCC[C@H]1c1ncc(-c2cc3c4c(c2)COc2cc(-c5cnc([C@@H]6CCCN6C(=O)[C@@H](NC(=O)OC)C(C)C)[nH]5)cc(c2-4)OC3)[nH]1)C(C)C`, for which the EC50 in assay [8] came out at 9.85 nM; in assay [5], 0.021 nM; in [7], 0.087 nM; in assay [9], 0.019 nM.
For `COC(=O)NC(C(=O)N1CCC[C@H]1c1ncc(-c2cc3c4c(c2)OCc2cc(-c5cnc([C@@H]6CCCN6C(=O)[C@@H](NC(=O)OC)C(C)C)[nH]5)cc(c2-4)OC3)[nH]1)c1cccnc1` (stereo not given in full), the 50% effective concentration (EC50) in [1] came out at 1.21 nM; in [3] it was 1.8 nM; in [5], 0.58 nM; in assay [7], 0.75 nM; in [9] it was 0.038 nM.
For the compound `COC(=O)N[C@H](C(=O)N1CCC[C@H]1c1ncc(-c2ccc3c(c2)COc2cc4c(ccc5nc([C@@H]6CCCN6C(=O)[C@H](NC(=O)OC)c6ccccc6)[nH]c54)cc2-3)[nH]1)C(C)C`, the EC50 in assay [1] was 0.012 nM; in assay [2], 0.005 nM; in assay [3], 0.134 nM; in assay [4], 0.008 nM; in [5] it was 0.021 nM; in [6], 0.004 nM. For the same compound, in assay [7], the EC50 is 0.022 nM.
With `COC(=O)N[C@H](C(=O)N1CCC[C@H]1c1ncc(-c2ccc3c(c2)COc2c-3ccc3c2ccc2nc([C@@H]4CCCN4C(=O)[C@@H](NC(=O)OC)C(C)C)[nH]c23)[nH]1)C(C)C`, the EC50 in [1] is 32.3 nM; in assay [2], 0.012 nM; in assay [3], 20.9 nM; in [4], 0.13 nM; in [5], 0.017 nM; in assay [7] it was 0.041 nM. In addition, the EC50 in assay [9] came out at 0.016 nM.
Consider `COC(=O)N[C@@H](C(=O)N1C[C@@H](C)C[C@H]1c1ncc(-c2cc3c4c(c2)OCc2cc(-c5cnc([C@@H]6C[C@H](C)CN6C(=O)[C@H](NC(=O)OC)c6ccccc6)[nH]5)cc(c2-4)OC3)[nH]1)c1ccccc1`, for which the EC50 in [1] stood at 0.026 nM; in assay [2] it was 0.006 nM; in assay [3], 0.058 nM; in assay [4], 0.013 nM; in [5], 0.02 nM; in assay [6] it was 0.005 nM. For the same compound, the concentration for a half-maximal effect (EC50) in assay [7] stood at 0.031 nM.
With `COC(=O)N[C@@H](C(=O)N1[C@@H](C)CC[C@H]1c1ncc(-c2cc3c4c(c2)OCc2cc(-c5cnc([C@@H]6CC[C@H](C)N6C(=O)[C@H](NC(=O)OC)c6ccccc6)[nH]5)cc(c2-4)OC3)[nH]1)c1ccccc1`, the concentration giving a half-maximal response (EC50) in assay [1] was 0.094 nM; in assay [2], 0.004 nM; in assay [3], 1.84 nM; in [4], 0.015 nM; in [5], 0.02 nM; in assay [6], 0.008 nM. Moreover, the EC50 in [7] came out at 0.15 nM.
Consider `COC(=O)N[C@H](C(=O)N1[C@@H](C)CC[C@H]1c1nc2ccc3cc4c(cc3c2[nH]1)OCc1cc(-c2cnc([C@@H]3C[C@H](C)CN3C(=O)[C@H](NC(=O)OC)c3ccccc3)[nH]2)ccc1-4)C(C)C`, for which the EC50 was 0.015 nM in assay [10]; 0.02 nM in [2]; 0.053 nM in assay [3]; 0.005 nM in assay [5]; 0.004 nM in [6]; 0.008 nM in [7].
For `COC(=O)N[C@H](C(=O)N1CCC[C@H]1c1ncc(-c2ccc3c4ccc(-c5cnc([C@@H]6CCCN6C(=O)[C@@H](NC(=O)OC)C(C)C)[nH]5)cc4c4ccccc4c3c2)[nH]1)C(C)C`, the EC50 is 6.79 nM in assay [8], 0.005 nM in assay [5], 0.092 nM in [7] and 0.02 nM in assay [9].
Consider `COC(=O)N[C@H](C(=O)N1CCC[C@H]1c1ncc(-c2cc3ccc4cc(-c5cnc([C@@H]6CCCN6C(=O)[C@@H](NC(=O)OC)C(C)C)[nH]5)cc5c(=O)c(c2)c3c45)[nH]1)C(C)C`, for which the EC50 in assay [5] came to 0.013 nM; in [7] it was 0.22 nM; in assay [9], 0.073 nM.
On to `COC(=O)N[C@H](C(=O)N1CCC[C@H]1c1ncc(-c2cc3c4c(c2)CCc2cc(-c5cnc([C@@H]6CCCN6C(=O)[C@@H](NC(=O)OC)C(C)C)[nH]5)cc(c2-4)CC3)[nH]1)C(C)C`, for which the half-maximal effective concentration (EC50) in [8] came out at 13.3 nM; in assay [5], 0.021 nM; in [7], 0.156 nM; in assay [9], 0.131 nM.
Regarding `COC(=O)N[C@H](C(=O)N1CCC[C@H]1c1ncc(-c2cc3c4c(ccc5cc(-c6cnc([C@@H]7CCCN7C(=O)[C@@H](NC(=O)OC)C(C)C)[nH]6)cc(c54)OC3)c2)[nH]1)C(C)C`, the EC50 was 10.2 nM in assay [1]; 19.7 nM in [3]; 0.022 nM in assay [5]; 0.063 nM in assay [7]; 0.014 nM in assay [9].
Take `CC[C@H](C)[C@H](NC(=O)OC)C(=O)N1CCC[C@H]1c1ncc(-c2cc3c4c(c2)OCc2cc(-c5cnc([C@@H]6CCCN6C(=O)[C@@H](NC(=O)OC)[C@@H](C)CC)[nH]5)cc(c2-4)OC3)[nH]1`: the concentration giving a half-maximal response (EC50) in assay [1] is 1.85 nM; in assay [8], 12.1 nM; in assay [5], 0.019 nM; in assay [7], 0.031 nM; in assay [9] it was 0.009 nM.
`COC(=O)N[C@H](C(=O)N1CCC[C@H]1c1ncc(-c2cc3c4c(c2)OCc2cc(-c5cnc([C@@H]6CCCN6C(=O)[C@@H](NC(=O)OC)C6CCCC6)[nH]5)cc(c2-4)OC3)[nH]1)C1CCCC1`: the 50% effective concentration (EC50) in assay [8] was more than 44 nM; in assay [5], 0.022 nM; in assay [7], 0.055 nM; in [9], 0.022 nM.
As to `COC(=O)N[C@H](C(=O)N1CCC[C@H]1c1ncc(-c2cc3c4c(c2)OCc2cc(-c5cnc([C@@H]6CCCN6C(=O)[C@@H](NC(=O)OC)[C@@H](C)OC)[nH]5)cc(c2-4)OC3)[nH]1)C(C)C`, the EC50 in [8] is 3.67 nM; in assay [5], 0.079 nM; in [7], 0.087 nM; in assay [9], 0.01 nM.
With `COC(=O)N[C@H](C(=O)N1CCC[C@H]1c1ncc(-c2ccc3c4ccc(-c5cnc([C@@H]6CCCN6C(=O)[C@@H](NC(=O)OC)C(C)C)[nH]5)cc4c4nccnc4c3c2)[nH]1)C(C)C`, the EC50 in assay [5] came out at 0.018 nM; in assay [7], 0.528 nM; in [9] it was 0.223 nM.
As for `COC(=O)N[C@H](C(=O)N1CCC[C@H]1c1ncc(-c2ccc3c4ccc(-c5cnc([C@@H]6CCCN6C(=O)[C@@H](NC(=O)OC)C(C)C)[nH]5)cc4c4nc5ccccc5nc4c3c2)[nH]1)C(C)C`, the EC50 in [5] was found to be 0.01 nM; in assay [7] it was 5.99 nM; in [9], 1.47 nM.

The term EC50 denotes the midpoint of the concentration-response curve.

The record behind these values is BindingDB's records for doi:10.1016/j.bmcl.2019.04.027 (Gilead Sciences, 2019).
